From PubChem BioAssay (NCI)
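Cultured in 96-well plates, cells were exposed to test compound for 48 hours across five concentrations. GI50 is the concentration that inhibits growth by half. TGI denotes the concentration required for complete inhibition of growth.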

Columns and labels:
Experiment in all cases: NCI tumour cell line growth inhibition, 48 h; in the data active = GI50 below about 0.43 µM; inactive = the rest
CAKI-1 renal = test system: CAKI-1 renal
NCI-H522 lung = test system: NCI-H522 lung
HCT-116 colon = test system: HCT-116 colon
MALME-3M melanoma = test system: MALME-3M melanoma
NCI-H23 lung = test system: NCI-H23 lung
A498 renal = test system: A498 renal
RXF 393 renal = test system: RXF 393 renal
HL-60(TB) leukemia = test system: HL-60(TB) leukemia
SF-539 CNS = test system: SF-539 CNS
SNB-75 CNS = test system: SNB-75 CNS

CC(=O)Nc1ccc(S(=O)(=O)c2ccc(NC(C)=O)cc2)cc1
> 100 µM: TGI (CAKI-1 renal) | TGI (NCI-H522 lung) | TGI (HCT-116 colon) | TGI (MALME-3M melanoma) | TGI (NCI-H23 lung) | TGI (A498 renal) | TGI (RXF 393 renal) | TGI (HL-60(TB) leukemia)
inactive: GI50 (CAKI-1 renal) > 100 µM | GI50 (NCI-H522 lung) > 100 µM | GI50 (HCT-116 colon) > 100 µM | GI50 (MALME-3M melanoma) 34.5 µM | GI50 (NCI-H23 lung) > 100 µM | GI50 (A498 renal) 81.4 µM | GI50 (RXF 393 renal) > 100 µM | GI50 (HL-60(TB) leukemia) > 100 µM

COc1ccc2c([nH]c3cc(O)c(C)cc32)c1CC=C(C)C
inactive: GI50 (NCI-H522 lung) 5.92 µM | GI50 (HCT-116 colon) 11.9 µM | GI50 (MALME-3M melanoma) 17.3 µM | GI50 (SF-539 CNS) 8.01 µM | GI50 (HL-60(TB) leukemia) 7.94 µM
> 25 µM: TGI (HCT-116 colon) | TGI (MALME-3M melanoma) | TGI (SF-539 CNS) | TGI (HL-60(TB) leukemia)
17.3 µM: TGI (NCI-H522 lung)

O=C1CCCC(=O)C1C(=O)c1ccc(C(F)(F)F)cc1[N+](=O)[O-]
inactive: GI50 (CAKI-1 renal) > 100 µM | GI50 (NCI-H522 lung) > 100 µM | GI50 (HCT-116 colon) > 100 µM | GI50 (MALME-3M melanoma) > 100 µM | GI50 (SNB-75 CNS) > 100 µM | GI50 (NCI-H23 lung) > 100 µM | GI50 (A498 renal) > 100 µM | GI50 (SF-539 CNS) > 100 µM | GI50 (HL-60(TB) leukemia) > 100 µM
> 100 µM: TGI (CAKI-1 renal) | TGI (NCI-H522 lung) | TGI (HCT-116 colon) | TGI (MALME-3M melanoma) | TGI (SNB-75 CNS) | TGI (NCI-H23 lung) | TGI (A498 renal) | TGI (SF-539 CNS) | TGI (HL-60(TB) leukemia)

CN1CCc2cc(O)c3cc2C1Cc1ccc(cc1)Oc1cc(ccc1O)CC1c2c(cc4c(c2O3)OCO4)CCN1C (stereo not given)
38.8 µM: TGI (HL-60(TB) leukemia)
> 100 µM: TGI (HCT-116 colon) | TGI (NCI-H23 lung)
39.4 µM: TGI (SNB-75 CNS)
60.2 µM: TGI (RXF 393 renal)
32.6 µM: TGI (SF-539 CNS)

O=C(NCCCCCCNC(=O)NC1OCC(O)C(O)C1O)NC1OCC(O)C(O)C1O (stereo not given)
> 100 µM: TGI (CAKI-1 renal) | TGI (NCI-H522 lung) | TGI (HCT-116 colon) | TGI (MALME-3M melanoma) | TGI (SNB-75 CNS) | TGI (NCI-H23 lung) | TGI (SF-539 CNS) | TGI (RXF 393 renal) | TGI (HL-60(TB) leukemia)

C=CCCC(O)c1ccc(CCCCCCCCCCC)o1 (stereo not given)
32.8 µM: TGI (NCI-H522 lung)
32.2 µM: TGI (HCT-116 colon)
33.8 µM: TGI (MALME-3M melanoma)
> 100 µM: TGI (HL-60(TB) leukemia)
34.3 µM: TGI (SF-539 CNS)
40.6 µM: TGI (NCI-H23 lung)
inactive: GI50 (CAKI-1 renal) 16 µM | GI50 (NCI-H522 lung) 17 µM | GI50 (HCT-116 colon) 18 µM | GI50 (MALME-3M melanoma) 15.6 µM | GI50 (SNB-75 CNS) 14.2 µM | GI50 (NCI-H23 lung) 19.3 µM | GI50 (SF-539 CNS) 18.9 µM | GI50 (RXF 393 renal) 18.5 µM | GI50 (HL-60(TB) leukemia) 39.2 µM
36.5 µM: TGI (RXF 393 renal)
28.6 µM: TGI (SNB-75 CNS)
31.5 µM: TGI (CAKI-1 renal)

CCCC(=O)Nc1ncnc2c1ncn2C1OC2COP(=O)(O)OC2C1OC(=O)CCC (stereo not given)
inactive: GI50 (CAKI-1 renal) > 1000 µM | GI50 (NCI-H522 lung) > 1000 µM | GI50 (HCT-116 colon) > 1000 µM | GI50 (MALME-3M melanoma) > 1000 µM | GI50 (SNB-75 CNS) > 1000 µM | GI50 (NCI-H23 lung) > 1000 µM
92.8 µM: TGI (A498 renal)
> 1000 µM: TGI (CAKI-1 renal) | TGI (NCI-H522 lung) | TGI (HCT-116 colon) | TGI (MALME-3M melanoma) | TGI (SNB-75 CNS) | TGI (NCI-H23 lung) | TGI (SF-539 CNS) | TGI (HL-60(TB) leukemia)

O=C(OC(CNc1c(C(=O)c2ccccc2)c(=O)n(Cc2ccccc2)c(=O)n1Cc1ccccc1)CN1CCCCC1)c1ccccc1 (stereo not given)
40.7 µM: TGI (NCI-H522 lung) | TGI (MALME-3M melanoma)
76.5 µM: TGI (A498 renal)
29.5 µM: TGI (RXF 393 renal)
35.5 µM: TGI (CAKI-1 renal)
33.8 µM: TGI (HL-60(TB) leukemia)
39.2 µM: TGI (NCI-H23 lung)
42.2 µM: TGI (SF-539 CNS)
28.1 µM: TGI (HCT-116 colon)
inactive: GI50 (CAKI-1 renal) 18.3 µM | GI50 (NCI-H522 lung) 21.1 µM | GI50 (HCT-116 colon) 14.9 µM | GI50 (MALME-3M melanoma) 18.5 µM | GI50 (NCI-H23 lung) 18.5 µM | GI50 (A498 renal) 32.3 µM | GI50 (SF-539 CNS) 21.7 µM | GI50 (RXF 393 renal) 14.7 µM | GI50 (HL-60(TB) leukemia) 14.8 µM
